System: corticospinal neurons (CSNs/CSMNs)
Assay: Laser-capture microdissection and Illumina microarray gene expression in corticospinal neurons contralateral to stroke
Assay type: in vivo, rat
Protocol: In a separate group of animals (n=20), layer V pyramidal cells of the sensorimotor cortex were retrogradely labeled by injecting Alexa-Fluor-488-conjugated cholera toxin B subunit (CTB; 300 U/μl in sterile saline) into the cervical spinal cord. For this, animals were anesthetized with a combination of ketamine and Domitor (medetomidine) and a laminectomy was performed at the cervical level of the spinal cord (C2-C4). CTB was stereotaxically delivered into four sites lateral to the corticospinal tract. Injections (1.3 μl) were spaced 1 mm apart on the rostro-caudal axis, and were made 0.5 mm to the left and right of the midline. After allowing two weeks for transport of the tracer, we performed either sham surgery with no treatment (n=6) or stroke surgery combined with saline (n=3) or inosine (n=4) treatment as described above. Seven days later, animals were decapitated under transient gas anesthesia, brains were removed and rinsed in cold RPMI medium, and a tissue block containing the sensorimotor cortex was dissected and placed in OCT Tissue Tek Medium (Sakura Finetek USA Inc., CA) on dry ice within five minutes of death. Ten μm sections were cut onto precleaned Gold Seal RITE-ON glass slides (Gold Seal Prod-ucts, Portsmouth, N.H.), placed on dry ice, and rapidly stored at −80° C.
Slide-mounted sections were thawed and dehydrated in RNAse-free ethanol gradients and xylene. Retro-gradely labeled, fluorescent cortical pyramidal cells in the undamaged hemisphere were individually captured using the Arcturus VERITAS system. ≧500 cells were collected from each animal and stored in Arcturus extraction buffer at −80° C. Total RNA was extracted from cells using the Micro-to-Midi TotalRNA Purification System (Invitrogen, Carlsbad Calif.) and double-amplified using the TargetAmp 2-Round Aminoallyl-aRNA Amplification kit 1.0 (Epicentre, Madison, Wis.). Amplified RNA was checked for average fragment length using the Agilent RNA 6000 Nano LabChip kit (Agilent Technologies, Santa Clara, Calif.) and then biotinylated and hybridized (1 μg) on Illumina RatRef-12 Expression BeadChip arrays (Illumina, San Diego Calif.), querying the expression of >22,000 RefSeq-curated rat transcripts. Results were obtained from a total of 15 samples representing 6 untreated controls, 4 animals with stroke treated with saline and 5 animals with stroke treated with inosine. Slides were processed and scanned with Illumina BeadStation platform according to the manufacturer protocol.
Raw data was analyzed using Bioconductor packages (www.bioconductor.org, (Gentleman et al., 2004)). Low level quality-control analysis was performed using inter-array Pearson correlation and clustering based on variance. Two arrays (1 saline and 1 inosine-treated) were outliers and were excluded from the analysis. Data was normalized using quantile normalization, and analysis of differential expression was performed using a linear model fitting (LIMMA package, (Smyth, 2005). Differentially expressed genes were classified according to gene ontology using Bioconductor packages and online tools (DAVID, http://david.abcc.ncifcrf.gov/). Pathway analysis was carried out using Ingenuity Pathway Analysis (Ingenuity Systems, www.ingenuity.com).

## OC[C@H]1O[C@@H](n2cnc3c(O)ncnc32)[C@H](O)[C@@H]1O [inosine]
ILMN_61521, inosine after stroke
  Signal Intensity, LOC500629: 946
ILMN_61607
  Fold-Induction Stroke, ino vs. cntrl, LOC500137: 0.58
ILMN_61607, inosine after stroke
  Signal Intensity, LOC500137: 454
ILMN_61840
  Fold-Induction Stroke, ino vs. cntrl, Slc6a15: 0.43
ILMN_61840, inosine after stroke
  Signal Intensity, Slc6a15: 1093
ILMN_62095
  Fold-Induction Stroke, ino vs. cntrl, Bpnt1: 0.70
ILMN_62095, inosine after stroke
  Signal Intensity, Bpnt1: 283
ILMN_62100, over and above inosine's effect of decreasing stroke-induced changes
  Fold-induction CSMNs: Ftl1: 1.74 fold
ILMN_62325
  Fold-Induction Stroke, ino vs. cntrl, Ddx1: 0.57
ILMN_62325, inosine after stroke
  Signal Intensity, Ddx1: 3553
ILMN_62559, over and above inosine's effect of decreasing stroke-induced changes
  Fold-induction CSMNs: Timp1: 3.74 fold
ILMN_62620
  Fold-Induction Stroke, ino vs. cntrl, Rab18: 0.76
ILMN_62620, inosine after stroke
  Signal Intensity, Rab18: 2230
ILMN_62651, over and above inosine's effect of decreasing stroke-induced changes
  Fold-induction CSMNs: Eif4ebp1: 1.86 fold
ILMN_62918
  Fold-Induction Stroke, ino vs. cntrl, Grinl1a: 0.66
ILMN_62918, inosine after stroke
  Signal Intensity, Grinl1a: 667
ILMN_62999
  Fold-Induction Stroke, ino vs. cntrl, Ppp1cb: 0.42
ILMN_62999, inosine after stroke
  Signal Intensity, Ppp1cb: 940
ILMN_63077
  Fold-Induction Stroke, ino vs. cntrl, LOC302559: 0.89
ILMN_63077, inosine after stroke
  Signal Intensity, LOC302559: 1031
ILMN_63297
  Fold-Induction Stroke, ino vs. cntrl, LOC366673: 0.60
ILMN_63297, inosine after stroke
  Signal Intensity, LOC366673: 298
ILMN_63299
  Fold-Induction Stroke, ino vs. cntrl, Rcn2: 0.60
ILMN_63299, inosine after stroke
  Signal Intensity, Rcn2: 442
ILMN_63474
  Fold-Induction Stroke, ino vs. cntrl, Gtl6: 0.51
ILMN_63474, inosine after stroke
  Signal Intensity, Gtl6: 302
ILMN_63608, LCM-captured CSMNs contralateral a stroke
  Fold-Induction, complement cascade gene C2: 2.93 fold
ILMN_63884
  Fold-Induction Stroke, ino vs. cntrl, Cdc91l1: 0.82
ILMN_63884, inosine after stroke
  Signal Intensity, Cdc91l1: 529
ILMN_63947
  Fold-Induction Stroke, ino vs. cntrl, LOC306428: 0.42
ILMN_63947, inosine after stroke
  Signal Intensity, LOC306428: 507
ILMN_64006
  Fold-Induction Stroke, ino vs. cntrl, LOC500436: 0.48
ILMN_64006, inosine after stroke
  Signal Intensity, LOC500436: 1871
ILMN_64007
  Fold-Induction Stroke, ino vs. cntrl, LOC366411: 0.51
ILMN_64007, inosine after stroke
  Signal Intensity, LOC366411: 295
ILMN_64237
  Fold-Induction Stroke, ino vs. cntrl, Bcl10: 0.84
ILMN_64237, inosine after stroke
  Signal Intensity, Bcl10: 723
ILMN_64781
  Fold-Induction Stroke, ino vs. cntrl, Magi3: 0.79
ILMN_64781, inosine after stroke
  Signal Intensity, Magi3: 472
ILMN_64945
  Fold-Induction Stroke, ino vs. cntrl, Rtn4: 0.57
ILMN_64945, inosine after stroke
  Signal Intensity, Rtn4: 6518
ILMN_65062
  Fold-Induction Stroke, ino vs. cntrl, LOC500501: 0.79
ILMN_65062, inosine after stroke
  Signal Intensity, LOC500501: 958
ILMN_65170
  Fold-Induction Stroke, ino vs. cntrl, LOC287212: 0.60
ILMN_65170, inosine after stroke
  Signal Intensity, LOC287212: 1634
ILMN_65309
  Fold-Induction Stroke, ino vs. cntrl, LOC499328: 0.53
ILMN_65309, inosine after stroke
  Signal Intensity, LOC499328: 899
ILMN_65450
  Fold-Induction Stroke, ino vs. cntrl, Psmb5: 0.65
ILMN_65450, inosine after stroke
  Signal Intensity, Psmb5: 2709
ILMN_65510
  Fold-Induction Stroke, ino vs. cntrl, Hnrpf: 0.86
ILMN_65510, inosine after stroke
  Signal Intensity, Hnrpf: 1922
ILMN_65587
  Fold-Induction Stroke, ino vs. cntrl, Psma7: 0.62
ILMN_65587, inosine after stroke
  Signal Intensity, Psma7: 2058
ILMN_65610
  Fold-Induction Stroke, ino vs. cntrl, LOC497663: 0.90
ILMN_65610, inosine after stroke
  Signal Intensity, LOC497663: 416
ILMN_65657
  Fold-Induction Stroke, ino vs. cntrl, Pafah1b2: 0.56
ILMN_65657, inosine after stroke
  Signal Intensity, Pafah1b2: 411
ILMN_65667
  Fold-Induction Stroke, ino vs. cntrl, LOC294046: 0.55
ILMN_65667, inosine after stroke
  Signal Intensity, LOC294046: 2096
ILMN_65668
  Fold-Induction Stroke, ino vs. cntrl, Rchy1: 0.77
ILMN_65668, inosine after stroke
  Signal Intensity, Rchy1: 416
ILMN_65702
  Fold-Induction Stroke, ino vs. cntrl, LOC501181: 0.49
ILMN_65702, inosine after stroke
  Signal Intensity, LOC501181: 268
ILMN_65814
  Fold-Induction Stroke, ino vs. cntrl, Mal: 0.40
ILMN_65814, inosine after stroke
  Signal Intensity, Mal: 465
ILMN_65993
  Fold-Induction Stroke, ino vs. cntrl, MGC93921: 0.69
ILMN_65993, inosine after stroke
  Signal Intensity, MGC93921: 845
ILMN_66036
  Fold-Induction Stroke, ino vs. cntrl, LOC299179: 0.76
ILMN_66036, inosine after stroke
  Signal Intensity, LOC299179: 385
ILMN_66272
  Fold-Induction Stroke, ino vs. cntrl, LOC317232: 0.70
ILMN_66272, inosine after stroke
  Signal Intensity, LOC317232: 5211
ILMN_66300
  Fold-Induction Stroke, ino vs. cntrl, Spnb4: 0.72
